This note sets out measurements from US20050019825A9, “Common ligand mimics: pseudothiohydantoins” (priority 2002, published 2005).

pIC50: −log10 of the molar value.

In assay [1] the target is inosine-5′-monophosphate dehydrogenase (IMPDH). Put plainly: IMPDH kinetic assay, spectrophotometric reduction of NAD+ (340 nm). In kind it is biochemical. Conditions: for pIC50: common ligand mimics, Examples 23/24. As to the method:
For IMPDH analysis, the compounds were screened using a kinetic protocol that spectrophotometrically evaluates reduction of NAD+.
Stock solutions of each of the reagents were prepared in the following concentrations. Dilutions of the stock solutions were prepared prior to running the assay in the concentrations indicated below.
The IMPDH reaction was monitored at 340 nm prior to and after addition of the inhibitor to detect background reaction with the inhibitor. Solutions of 100 μl of the inhibitors in DMSO were prepared to provide a final DMSO concentration of 5% of the total assay volume. These solutions were incubated for 6 minutes at 37° C. in a 992 μl of a solution containing 0.1 M Tris-HCl, pH 8.0, 0.25 M KCl, 0.3% glycerol, 30 μM NAD+, and 600 μM IMP (inosine monophosphate). The reaction was then initiated with 8 μl of IMPDH (0.75 μg/ml). After the enzyme was added, the solution was mixed for 20 seconds, and the reaction was run for 10 minutes. After a 50 second lag, the samples were read in a Cary spectrophotometer at 340 nm. Reading of the samples was continued until 300 seconds. Cuvette #1 contained the control reaction (no inhibitor), and cuvette #2 contained the positive control reaction in which Cibacron Blue was substituted for inhibitor. The substrate was kept at a level at least 10 times the Km.

The target in assay [2] is T1, HMG CoA reductase (HMGCoAR) (UniProt P04035).
T1 sequence (P04035 1-888): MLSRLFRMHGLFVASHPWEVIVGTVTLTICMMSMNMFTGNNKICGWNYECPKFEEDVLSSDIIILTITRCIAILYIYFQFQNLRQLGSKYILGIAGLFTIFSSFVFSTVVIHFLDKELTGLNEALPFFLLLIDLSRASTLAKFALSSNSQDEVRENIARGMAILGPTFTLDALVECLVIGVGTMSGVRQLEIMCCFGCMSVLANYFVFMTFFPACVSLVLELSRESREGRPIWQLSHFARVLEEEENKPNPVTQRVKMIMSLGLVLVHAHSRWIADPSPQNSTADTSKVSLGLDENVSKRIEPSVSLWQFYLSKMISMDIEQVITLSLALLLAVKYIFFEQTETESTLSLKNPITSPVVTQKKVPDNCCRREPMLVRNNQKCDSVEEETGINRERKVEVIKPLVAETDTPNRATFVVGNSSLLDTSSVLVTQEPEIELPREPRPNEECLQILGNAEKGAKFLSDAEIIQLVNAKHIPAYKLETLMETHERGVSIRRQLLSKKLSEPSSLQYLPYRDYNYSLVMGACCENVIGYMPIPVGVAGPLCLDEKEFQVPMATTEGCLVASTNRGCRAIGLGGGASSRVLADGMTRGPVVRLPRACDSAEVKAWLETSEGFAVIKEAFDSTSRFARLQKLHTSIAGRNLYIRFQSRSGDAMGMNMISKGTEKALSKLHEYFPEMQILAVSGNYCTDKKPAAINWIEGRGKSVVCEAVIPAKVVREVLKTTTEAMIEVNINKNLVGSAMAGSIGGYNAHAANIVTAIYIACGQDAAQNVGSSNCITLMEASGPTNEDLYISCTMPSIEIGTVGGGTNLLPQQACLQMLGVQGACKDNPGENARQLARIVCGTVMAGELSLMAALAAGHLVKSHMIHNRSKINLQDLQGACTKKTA
Put plainly: HMGCoAR kinetic assay, spectrophotometric oxidation of NADPH (340 nm). Type of assay: biochemical. Conditions: for pIC50: common ligand mimics, Examples 23/24. As to the method: For HMGCoAR analysis, the compounds were screened using a kinetic protocol that spectrophotometrically evaluates oxidation of NADPH.
Stock solutions of each of the reagents were prepared in the following concentrations. Dilutions of the stock solutions were prepared prior to running the assay in the concentrations indicated below. The enzyme was diluted in 1 M NaCl. To prepare the dilution buffer, 10 μl of HMGCoAR (1 mg/ml) was mixed with 133 μl of 3 M NaCl solution and 257 μl of 25 mM KH2PO4 buffer (pH 7.5; containing 50 mM NaCl, […] EDTA (ethylenediaminetetraacetic acid), and 5 mM DTT (dithiothreitol).
The HMGCoAR reaction was monitored at 340 nm prior to and after addition of the inhibitor to detect background reaction with the inhibitor. Solutions of 100 μM of the inhibitors in DMSO were prepared to provide a final DMSO concentration of 2% of the total assay volume. These solutions were incubated for 6 minutes at 25° C. in a 994 μl of a solution containing 25 mM KH2PO4, pH 7.5, 160 μM HMGCoA, 13 μM NADPH, 50 mM NaCl, 1 mM EDTA, and 5 mM DTT. The reaction was then initiated with 5 μl of HMGCoAR enzyme (1:40 dilution of 0.65 mg/ml). After the enzyme was added, the solution was mixed for 20 seconds, and the reaction was run for 10 minutes. After a 50 second lag, the samples were read in a Cary spectrophotometer at 340 nm. Reading of the samples was continued until 300 seconds. Cuvette #1 contained the control reaction (no inhibitor), and cuvette #2 contained the positive control reaction in which Cibacron Blue at 2.05 μM was substituted for inhibitor to yield 50 to 70% inhibition. The substrate was kept at a level at least 10 times the Km.

`N=C1NC(=O)C(=Cc2ccc(C(=O)O)cc2)S1` [4-(2-imino-4-oxo-thiazolidin-5-ylidenemethyl)-benzoic acid] showed a pIC50 in assay [1] below 4.40.

On to `COc1cc(O)ccc1C=C1SC(=N)NC1=O` [5-(4-hydroxy-2-methoxy-benzylidene)-2-imino-thiazolidin-4-one], for which the “inhibition of IMPDH (in words)” value in assay [1] (Example 24 (FIG. 6)) was “no inhibition”. Further, the “inhibition of HMGCoAR (in words)” value in assay [2] (Example 24 (FIG. 6)) is “no inhibition”.

Take `COc1cc(C=C2SC(N)=NC2=O)ccc1O` [5-(4-hydroxy-3-methoxy-benzylidene)-2-imino-thiazolidin-4-one]: the pIC50 in assay [1] and in assay [2] was below 4.00 each time.

As for `N=C1NC(=O)C(=Cc2ccc(O)c([N+](=O)[O-])c2)S1` [5-(4-hydroxy-3-nitro-benzylidene)-2-imino-thiazolidin-4-one], the pIC50 is below 4.12 in assay [1] and below 4.05 in assay [2].
